Data as given in patent US20020022022A1, “Inhibition of cell proliferation and matrix synthesis by antioxidants and NAD(P)H oxidase inhibitors” (priority 2000, published 2002).

Key:
[1] = test system: superoxide anion (—O2^−) generation in coronary media; test: —O2^− production in uninjured coronary media (SOD-inhibitable NBT reduction); format: cell-based, pigs; settings: DETCA 10 mM
Experimental: (§1) The production of —O2^− is measured by superoxide dismutase- (SOD) or tiron-inhibitable conversion of nitroblue tetrazolium (NBT) to formazan. (20,21)
—O2^− production in coronary arteries: Coronary arteries are dissected free from adipose tissue and myocardium and then cut into ˜5 mm rings and placed in 24-well plates. Tissues are balanced in phenol-free DMEM at 37° C. in a CO2 incubator for 30 minutes with or without addition of SOD (SOD, 1000 unit/ml) or tiron (10 mM), both scavengers of —O2^− Freshly made NBT (100 mg/L in phenol-free DMEM) is added to the tissues with a gentle rocking for 3 hours. The reaction is terminated by addition of equal volume of 0.5N HCl, and tissues are rinsed twice with cold PBS. To extract formazan, tissues are pulverized in liquid nitrogen and dissolved in 100% pyridine at 80° C. for 30 minutes. After centrifugation, light absorbance is read in supernatants at 540 nm. The NBT reduction to formazan is calculated using the following formula: NBT reduction=A×V/(T×E×L) (A: absorbance; V: volume of solubilizing solution; T: time of incubation with NBT (minutes); E: extinction coefficient=0.72 mmol.mm; L: length of light travel through the solution, 10 mm). Either SOD- or tiron-inhibitable NBT reduction is calculated as measures of —O2^− production (pmol/min/mg wet weight). […]

[2] = test system: superoxide anion (—O2^−) generation in coronary adventitia; test: —O2^− production in uninjured coronary adventitia (SOD-inhibitable NBT reduction); format: cell-based, pigs; settings: uninjured coronary adventitia; DETCA 10 mM
Experimental: as §1
—O2^− production in coronary arteries: Coronary arteries are dissected free from adipose tissue and myocardium and then cut into ˜5 mm rings and placed in 24-well plates. Tissues are balanced in phenol-free DMEM at 37° C. in a CO2 incubator for 30 minutes with or without addition of SOD (SOD, 1000 unit/ml) or tiron (10 mM), both scavengers of —O2^− Freshly made NBT (100 mg/L in phenol-free DMEM) is added to the tissues with a gentle rocking for 3 hours. The reaction is terminated by addition of equal volume of 0.5N HCl, and tissues are rinsed twice with cold PBS. To extract formazan, tissues are pulverized in liquid nitrogen and dissolved in 100% pyridine at 80° C. for 30 minutes. After centrifugation, light absorbance is read in supernatants at 540 nm. The NBT reduction to formazan is calculated using the following formula: NBT reduction=A×V/(T×E×L) (A: absorbance; V: volume of solubilizing solution; T: time of incubation with NBT (minutes); E: extinction coefficient=0.72 mmol.mm; L: length of light travel through the solution, 10 mm). Either SOD- or tiron-inhibitable NBT reduction is calculated as measures of —O2^− production (pmol/min/mg wet weight). To determine the pathways mediating —O2^− production, several inhibitors are used in the experiments, including diphenyleneiodonium (DPI, 100 μM), rotenone (ROT, 50 μM), oxypurinol (OXY, 300 μM), N^ω-nitro-L-arginine methyl ester (L-NAME, 1 mM), and diethyldithio-carbamic acid (DETCA, 10 mM). The n value represents the number of vascular rings obtained from at least 3 animals per experimental condition.

CCN(CC)C(=S)S [DETCA, diethyldithio-carbamic acid]
—O2^− generation in media with SOD inhibitor [1]: 36.3 ± 8.2 pmol/mg/min | —O2^− generation in adventitia with SOD inhibitor [2]: 19.6 ± 2.5 pmol/mg/min
